Key:
Format in all cases: in vivo
[1] = tested on: ragweed (common ragweed, Ambrosia elatior); assay: Test A greenhouse herbicide test, pre- and postemergence
How it was run: (§1)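 Visual injury ratings, 0 (no effect) to 100 (complete control), versus untreated plants after roughly 10 d in a greenhouse. Compounds, formulated in a surfactant-containing non-phytotoxic solvent, were sprayed on loam–sand soil after sowing (pre) or on one- to two-leaf plants 2–10 cm tall (post).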

[2] = tested on: pigweed (Amaranthus retroflexus); assay: as above
How it was run: as §1

kochia (Kochia scoparia) = assay: as above
How it was run: as §1

[3] = tested on: foxtail, giant (giant foxtail, Setaria faberii); assay: as above
How it was run: as §1

[4] = tested on: wheat (Triticum aestivum); assay: as above; conditions: Postemergence; for Plant response rating, Wheat: 125 g ai/ha, visual rating after approx. 10 d, 0 to 100 scale (0 no effect, 100 complete control); for Wheat plant response rating: 500 g ai/ha, 0 to 100 scale, 0 is no effect, 100 is complete control
How it was run: as §1

[5] = tested on: pigweed (Amaranthus retroflexus); assay: Test C greenhouse herbicide test, pre- and postemergence
From the text: (§2) Seeds of plant species selected from blackgrass (Alopecurus myosuroides), ryegrass, Italian (Italian ryegrass, Lolium multiflorum), wheat (winter wheat, Triticum aestivum), galium (catchweed bedstraw, Galium aparine), corn (Zea mays), large crabgrass, large (large crabgrass, Digitaria sanguinalis), foxtail, giant (giant foxtail, Setaria faberii), johnsongrass (Sorghum halepense), lambsquarters (Chenopodium album), morningglory (Ipomoea coccinea), nutsedge, yellow (yellow nutsedge, Cyperus esculentus), pigweed (Amaranthus retroflexus), ragweed (common ragweed, Ambrosia elatior), soybean (Glycine max), barnyardgrass (Echinochloa crus-galli), oilseed rape (Brassica napus), waterhemp (common waterhemp, Amaranthus rudis), and velvetleaf (Abutilon theophrasti) were planted into a blend of loam soil and sand and treated preemergence with test chemicals formulated in a non-phytotoxic solvent mixture which included a surfactant.
(§3) At the same time, plants selected from these crop and weed species and also chickweed (common chickweed, Stellaria media), kochia (Kochia scoparia), and oat, wild (wild oat, Avena fatua), were planted in pots containing Redi-Earth® planting medium (Scotts Company, 14111 Scottslawn Road, Marysville, Ohio 43041) comprising spaghnum peat moss, vermiculite, wetting agent and starter nutrients and treated with postemergence applications of test chemicals formulated in the same manner. Plants ranged in height from 2 to 18 cm (1- to 4-leaf stage) for postemergence treatments. Treated plants and controls were maintained in a greenhouse for 13 to 15 d, after which time all species were compared to controls and visually evaluated. Plant response ratings, summarized in Table C, are based on a scale of 0 to 100 where 0 is no effect and 100 is complete control. A dash (-) response means no test result.

[6] = tested on: blackgrass (Alopecurus myosuroides); assay: as above
From the text: as §2, §3

[7] = tested on: velvetleaf (Abutilon theophrasti); assay: as above
From the text: as §2, §3

[8] = tested on: morningglory (Ipomoea coccinea); assay: as above
From the text: as §2, §3

[9] = tested on: ryegrass, Italian (Italian ryegrass, Lolium multiflorum); assay: as above
From the text: as §2, §3

corn (Zea mays) = assay: as above
From the text: as §2, §3

[10] = Postemergence, 125 g ai/ha, visual rating after approx. 10 d, 0 to 100 scale (0 no effect, 100 complete control)
[11] = Postemergence, 500 g ai/ha, 0 to 100 scale, 0 is no effect, 100 is complete control
[12] = Preemergence, 125 g ai/ha, 0 to 100 scale where 0 is no effect and 100 is complete control
[13] = Preemergence, 500 g ai/ha, 0 to 100 scale, 0 no effect, 100 complete control
[14] = Postemergence, 31 g ai/ha, 0 to 100 scale (0 no effect, 100 complete control)
[15] = Postemergence, 125 g ai/ha, scale 0 to 100, 0 is no effect, 100 is complete control
[16] = Postemergence, 250 g ai/ha, scale 0 to 100, 0 no effect, 100 complete control, 13 to 15 d
[17] = Preemergence, 31 g ai/ha, scale 0 to 100, 0 is no effect, 100 is complete control
[18] = Preemergence, 62 g ai/ha, scale 0 to 100, 0 is no effect, 100 is complete control
[19] = Preemergence, 125 g ai/ha, scale 0 to 100, 0 is no effect, 100 is complete control
[20] = Preemergence, 250 g ai/ha, scale 0 to 100, 0 no effect, 100 complete control
[21] = postemergence, 62 g ai/ha, scale 0 to 100, 0 no effect, 100 complete control

Cn1nc(Br)c(O)c(-c2cccc3ccccc23)c1=O [Compound 20]
Plant response rating, Ragweed [1, 10]: 80 | Ragweed plant response rating [1, 11]: 100 | Ragweed plant response rating [1, 12]: 30 | Plant response rating, Ragweed [1, 13]: 90 | Plant response rating, Pigweed [2, 10]: 100 | Pigweed plant response rating [2, 11]: 100 | Pigweed plant response rating [2, 12]: 80 | Plant response rating, Pigweed [2, 13]: 100 | Plant response rating, Kochia (kochia (Kochia scoparia); [10]): 90 | Kochia plant response rating (kochia (Kochia scoparia); [11]): 100 | Kochia plant response rating (kochia (Kochia scoparia); [12]): 80 | Plant response rating, Kochia (kochia (Kochia scoparia); [13]): 100 | Plant response rating, Foxtail, Giant [3, 10]: 30 | Foxtail, Giant plant response rating [3, 11]: 100 | Foxtail, Giant plant response rating [3, 12]: 40 | Plant response rating, Foxtail, Giant [3, 13]: 90 | Plant response rating, Wheat [4]: 20 | Wheat plant response rating [4]: 30 | Pigweed plant response rating [5, 14]: 75 | Plant response rating, Pigweed [5, 15]: 98 | Plant response rating, Pigweed [5, 16]: 100 | Plant response rating, Pigweed [5, 17]: 100 | Plant response rating, Pigweed [5, 18]: 100 | Plant response rating, Pigweed [5, 19]: 100 | Pigweed plant response rating [5, 20]: 100 | Pigweed plant response rating [5, 21]: 90 | Blackgrass plant response rating [6, 14]: 5 | Plant response rating, Blackgrass [6, 15]: 10 | Plant response rating, Blackgrass [6, 16]: 45 | Plant response rating, Blackgrass [6, 17]: 0 | Plant response rating, Blackgrass [6, 18]: 5 | Plant response rating, Blackgrass [6, 19]: 40 | Blackgrass plant response rating [6, 20]: 80 | Blackgrass plant response rating [6, 21]: 10 | Velvetleaf plant response rating [7, 14]: 25 | Plant response rating, Velvetleaf [7, 15]: 85 | Plant response rating, Velvetleaf [7, 16]: 100 | Plant response rating, Velvetleaf [7, 18]: 90 | Plant response rating, Velvetleaf [7, 19]: 100 | Velvetleaf plant response rating [7, 20]: 100 | Velvetleaf plant response rating [7, 21]: 25 | Morningglory plant response rating [8, 14]: 100 | Plant response rating, Morningglory [8, 15]: 100 | Plant response rating, Morningglory [8, 16]: 100 | Plant response rating, Morningglory [8, 17]: 85 | Plant response rating, Morningglory [8, 18]: 98 | Plant response rating, Morningglory [8, 19]: 98 | Morningglory plant response rating [8, 20]: 100 | Morningglory plant response rating [8, 21]: 100 | Ryegrass, Italian plant response rating [9, 14]: 55 | Plant response rating, Ryegrass, Italian [9, 15]: 80 | Plant response rating, Ryegrass, Italian [9, 16]: 90 | Plant response rating, Ryegrass, Italian [9, 17]: 75 | Plant response rating, Ryegrass, Italian [9, 18]: 95 | Plant response rating, Ryegrass, Italian [9, 19]: 95 | Ryegrass, Italian plant response rating [9, 20]: 95 | Ryegrass, Italian plant response rating [9, 21]: 60 | Corn plant response rating (corn (Zea mays); [14]): 5 | Plant response rating, Corn (corn (Zea mays); [15]): 5 | Plant response rating, Corn (corn (Zea mays); [16]): 10 | Plant response rating, Corn (corn (Zea mays); [17]): 0 | Plant response rating, Corn (corn (Zea mays); [18]): 0 | Plant response rating, Corn (corn (Zea mays); [19]): 5 | Corn plant response rating (corn (Zea mays); [20]): 35 | Corn plant response rating (corn (Zea mays); [21]): 5

Cc1cc(C)c2ccccc2c1-c1c(O)c(C)nn(C)c1=O [Compound 21]
Plant response rating, Ragweed [1, 10]: 100 | Ragweed plant response rating [1, 11]: 100 | Ragweed plant response rating [1, 12]: 100 | Plant response rating, Ragweed [1, 13]: 100 | Plant response rating, Pigweed [2, 10]: 100 | Pigweed plant response rating [2, 11]: 100 | Pigweed plant response rating [2, 12]: 100 | Plant response rating, Pigweed [2, 13]: 100 | Plant response rating, Kochia (kochia (Kochia scoparia); [10]): 100 | Kochia plant response rating (kochia (Kochia scoparia); [11]): 100 | Kochia plant response rating (kochia (Kochia scoparia); [12]): 30 | Plant response rating, Kochia (kochia (Kochia scoparia); [13]): 90 | Plant response rating, Foxtail, Giant [3, 10]: 100 | Foxtail, Giant plant response rating [3, 11]: 100 | Foxtail, Giant plant response rating [3, 12]: 90 | Plant response rating, Foxtail, Giant [3, 13]: 100 | Plant response rating, Wheat [4]: 10 | Wheat plant response rating [4]: 60 | Pigweed plant response rating [5, 14]: 70 | Plant response rating, Pigweed [5, 15]: 95 | Plant response rating, Pigweed [5, 16]: 98 | Plant response rating, Pigweed [5, 17]: 100 | Plant response rating, Pigweed [5, 18]: 100 | Plant response rating, Pigweed [5, 19]: 100 | Pigweed plant response rating [5, 20]: 100 | Pigweed plant response rating [5, 21]: 95 | Blackgrass plant response rating [6, 14]: 80 | Plant response rating, Blackgrass [6, 15]: 90 | Plant response rating, Blackgrass [6, 16]: 95 | Plant response rating, Blackgrass [6, 17]: 90 | Plant response rating, Blackgrass [6, 18]: 90 | Plant response rating, Blackgrass [6, 19]: 90 | Blackgrass plant response rating [6, 20]: 90 | Blackgrass plant response rating [6, 21]: 90 | Velvetleaf plant response rating [7, 14]: 75 | Plant response rating, Velvetleaf [7, 15]: 85 | Plant response rating, Velvetleaf [7, 16]: 90 | Plant response rating, Velvetleaf [7, 18]: 90 | Plant response rating, Velvetleaf [7, 19]: 98 | Velvetleaf plant response rating [7, 20]: 98 | Velvetleaf plant response rating [7, 21]: 85 | Morningglory plant response rating [8, 14]: 85 | Plant response rating, Morningglory [8, 15]: 100 | Plant response rating, Morningglory [8, 16]: 100 | Plant response rating, Morningglory [8, 17]: 95 | Plant response rating, Morningglory [8, 18]: 98 | Plant response rating, Morningglory [8, 19]: 100 | Morningglory plant response rating [8, 20]: 100 | Morningglory plant response rating [8, 21]: 100 | Ryegrass, Italian plant response rating [9, 14]: 90 | Plant response rating, Ryegrass, Italian [9, 15]: 95 | Plant response rating, Ryegrass, Italian [9, 16]: 95 | Plant response rating, Ryegrass, Italian [9, 17]: 90 | Plant response rating, Ryegrass, Italian [9, 18]: 90 | Plant response rating, Ryegrass, Italian [9, 19]: 90 | Ryegrass, Italian plant response rating [9, 20]: 95 | Ryegrass, Italian plant response rating [9, 21]: 95 | Corn plant response rating (corn (Zea mays); [14]): 5 | Plant response rating, Corn (corn (Zea mays); [15]): 20 | Plant response rating, Corn (corn (Zea mays); [16]): 20 | Plant response rating, Corn (corn (Zea mays); [17]): 0 | Plant response rating, Corn (corn (Zea mays); [18]): 15 | Plant response rating, Corn (corn (Zea mays); [19]): 40 | Corn plant response rating (corn (Zea mays); [20]): 65 | Corn plant response rating (corn (Zea mays); [21]): 65

From US10597388B2, “Pyridazinone herbicides” (FMC CORPORATION, priority 2014, dated 2020)
